Data taken from US8952024B2, “Herbicidal pyrimidone derivatives” (E I du Pont de Nemours and Company, priority 2009, dated 2015).

Tests used:
Format in all cases: in vivo
[1] = system: barnyardgrass (Echinochloa crus-galli); experiment: Test A pre-/postemergence plant response
In short: (§1)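 Each species was treated preemergence via directed soil spray and postemergence at the one- to two-leaf stage, with compounds formulated in a non-phytotoxic solvent plus surfactant. Visual injury relative to untreated controls was rated after about ten days on a 0–100 scale.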

[2] = system: corn (Zea mays); experiment: Test A pre-/postemergence plant response
In short: as §1

[3] = system: giant foxtail (Setaria faberii); experiment: Test A pre-/postemergence plant response
In short: as §1

[4] = system: large crabgrass (Digitaria sanguinalis); experiment: Test A pre-/postemergence plant response
In short: as §1

[5] = system: morningglory (Ipomoea spp.); experiment: Test A pre-/postemergence plant response
In short: as §1

[6] = system: pigweed (Amaranthus retroflexus); experiment: Test A pre-/postemergence plant response
In short: as §1

[7] = system: velvetleaf (Abutilon theophrasti); experiment: Test A pre-/postemergence plant response
In short: as §1

[8] = system: wheat (Triticum aestivum); experiment: Test A pre-/postemergence plant response
In short: as §1

[9] = system: barnyardgrass (Echinochloa crus-galli); experiment: Test B flooded paddy test; conditions: for Plant response rating, Flood, Barnyardgrass: 250 g ai/ha, flooded paddy test, visual rating on 0 to 100 scale (0 no effect, 100 complete control) after 13 to 15 days; for Plant response rating, Barnyardgrass: Flood (flooded paddy test), 62 g ai/ha, scale of 0 to 100 where 0 is no effect and 100 is complete control, 13 to 15 days
In short: (§2)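 Rice, umbrella sedge, ducksalad and barnyardgrass were grown to the 2-leaf stage, flooded to 3 cm, and compound was applied directly to the paddy water, with that depth kept throughout. After 13 to 15 days in the greenhouse, plants were visually rated against controls on a 0 (no effect) to 100 (complete control) scale.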

[10] = system: ducksalad (Heteranthera limosa); experiment: Test B flooded paddy test; conditions: for Plant response rating, Flood, Ducksalad: 250 g ai/ha, flooded paddy test, visual rating on 0 to 100 scale (0 no effect, 100 complete control) after 13 to 15 days; for Plant response rating, Ducksalad: Flood (flooded paddy test), 62 g ai/ha, scale of 0 to 100 where 0 is no effect and 100 is complete control, 13 to 15 days
In short: as §2

[11] = system: rice (Oryza sativa); experiment: Test B flooded paddy test; conditions: for Plant response rating, Flood, Rice: 250 g ai/ha, flooded paddy test, visual rating on 0 to 100 scale (0 no effect, 100 complete control) after 13 to 15 days; for Plant response rating, Rice: Flood (flooded paddy test), 62 g ai/ha, scale of 0 to 100 where 0 is no effect and 100 is complete control, 13 to 15 days
In short: as §2

[12] = system: umbrella sedge (Cyperus difformis); experiment: Test B flooded paddy test; conditions: for Plant response rating, Flood, Sedge, Umbrella: 250 g ai/ha, flooded paddy test, visual rating on 0 to 100 scale (0 no effect, 100 complete control) after 13 to 15 days; for Plant response rating, Sedge, Umbrella: Flood (flooded paddy test), 62 g ai/ha, scale of 0 to 100 where 0 is no effect and 100 is complete control, 13 to 15 days
In short: as §2

[13] = Postemergence, 125 g ai/ha, 0 to 100 scale where 0 is no effect and 100 is complete control
[14] = Postemergence, 500 g ai/ha, 0 to 100 scale, 0 = no effect, 100 = complete control, approx. ten days
[15] = Preemergence, 125 g ai/ha, 0 to 100 scale, 0 = no effect, 100 = complete control
[16] = Preemergence, 500 g ai/ha, visual injury, 0 to 100 scale (0 no effect, 100 complete control), approx. ten days

| Compound | Plant response rating, Barnyardgrass [1, 13] | Plant response rating, Barnyardgrass [1, 14] | Plant response rating, Barnyardgrass [1, 15] | Plant response rating, Barnyardgrass [1, 16] | Plant response rating, Corn [2, 13] | Plant response rating, Corn [2, 14] | Plant response rating, Corn [2, 15] | Plant response rating, Corn [2, 16] | Plant response rating, Foxtail, Giant [3, 13] | Plant response rating, Foxtail, Giant [3, 14] | Plant response rating, Foxtail, Giant [3, 15] | Plant response rating, Foxtail, Giant [3, 16] | Plant response rating, Crabgrass, Large [4, 13] | Plant response rating, Crabgrass, Large [4, 14] | Plant response rating, Crabgrass, Large [4, 15] | Plant response rating, Crabgrass, Large [4, 16] | Plant response rating, Morningglory [5, 13] | Plant response rating, Morningglory [5, 14] | Plant response rating, Morningglory [5, 15] | Plant response rating, Morningglory [5, 16] | further results |
| --- | --- | --- | --- | --- | --- | --- | --- | --- | --- | --- | --- | --- | --- | --- | --- | --- | --- | --- | --- | --- | --- |
| CCCCCc1ncc(C(=O)C2=C(O)CCCC2=O)c(=O)n1-c1ccccc1 [Compound 78] | 50 | 70 | 0 | 30 | 0 | 20 | 0 | 0 | 20 | 50 | 0 | 10 | 30 | 70 | 10 | 50 | 70 | 100 | 0 | 0 | Plant response rating, Pigweed [6, 13]: 100; Plant response rating, Pigweed [6, 14]: 100; Plant response rating, Pigweed [6, 15]: 50; Plant response rating, Pigweed [6, 16]: 100; Plant response rating, Velvetleaf [7, 13]: 100; Plant response rating, Velvetleaf [7, 14]: 100; Plant response rating, Velvetleaf [7, 15]: 20; Plant response rating, Velvetleaf [7, 16]: 50; Plant response rating, Wheat [8, 13]: 0; Plant response rating, Wheat [8, 14]: 0; Plant response rating, Wheat [8, 15]: 0; Plant response rating, Wheat [8, 16]: 0; Plant response rating, Flood, Barnyardgrass [9]: 0; Plant response rating, Barnyardgrass [9]: 0; Plant response rating, Flood, Ducksalad [10]: 20; Plant response rating, Ducksalad [10]: 0; Plant response rating, Flood, Rice [11]: 20; Plant response rating, Rice [11]: 0; Plant response rating, Flood, Sedge, Umbrella [12]: 40; Plant response rating, Sedge, Umbrella [12]: 30 |
| CCCCn1c(-c2cccc(Br)c2)ncc(C(=O)C2=C(O)CCCC2=O)c1=O [Compound 138] | 90 | 90 | 20 | 90 | 20 | 20 | 0 | 20 | 60 | 90 | 30 | 70 | 70 | 90 | 40 | 70 | 50 | 100 | 0 | 0 | Plant response rating, Pigweed [6, 13]: 100; Plant response rating, Pigweed [6, 14]: 100; Plant response rating, Pigweed [6, 15]: 50; Plant response rating, Pigweed [6, 16]: 90; Plant response rating, Velvetleaf [7, 13]: 100; Plant response rating, Velvetleaf [7, 14]: 100; Plant response rating, Velvetleaf [7, 15]: 20; Plant response rating, Velvetleaf [7, 16]: 80; Plant response rating, Wheat [8, 13]: 0; Plant response rating, Wheat [8, 14]: 20; Plant response rating, Wheat [8, 15]: 0; Plant response rating, Wheat [8, 16]: 20; Plant response rating, Flood, Barnyardgrass [9]: 25; Plant response rating, Barnyardgrass [9]: 0; Plant response rating, Flood, Ducksalad [10]: 80; Plant response rating, Ducksalad [10]: 70; Plant response rating, Flood, Rice [11]: 15; Plant response rating, Rice [11]: 0; Plant response rating, Flood, Sedge, Umbrella [12]: 80; Plant response rating, Sedge, Umbrella [12]: 70 |
